In patent publication US20240350456A1, “COMPOSITIONS AND METHODS FOR DIAGNOSING AND TREATING INFLAMMATORY CONDITIONS” (RUTGERS, THE STATE UNIVERSITY OF NEW JERSEY, priority 2023, published 2024):

Key:
[1] = tested on: ZO-1 (Tjp1) and Ocln; test: Intestinal organoids treated with LPS and metabolites: tight junction (TJ) expression, RT-qPCR and immunostaining; type: cell-based, mouse; settings: for gene expression of Ocln: ex vivo, in the presence of the barrier disruptor; for TJ expression at the protein and mRNA levels: in the presence of LPS (1 μg/mL), 48 hr
Method: Intestinal organoids were isolated as previously described (Das et al., 2015; Pearce et al., 2018). Briefly, crypts were isolated from small intestine of conventional house C57BL/6 male mice (Taconic Laboratories, Hudson, NY) by shaking in isolation buffer (2 mM EDTA in PBS), then, crypts were harvested, processed, and suspended in crypt culture medium (CCM), which consisted of advanced DMEM/F12 (Life Technologies, Carlsbad, CA) supplemented with serum-free B27 (1:50; Life Technologies), N2 (1:100; Life Technologies), N-acetylcysteine (1 mM; Sigma-Aldrich, St. Louis, MO), recombinant murine epithelial growth factor (EGF, 50 ng/ml; Peprotech, Rocky Hill, NJ), Noggin (100 ng/ml; Peprotech), R-Spondin (500 ng/ml; Peprotech), Glutamax-I supplement (1:100; Life Technologies), penicillin/streptomycin (500 μg/ml; Life Technologies), and HEPES ([…]; Life Technologies). Crypts were resuspended in 70% Matrigel (density ˜450 crypts per dome, 2 domes per well in 24-well plate) and allowed to solidify at 37° C. for 20 min. CCM (1.5 mL) was then added to each well. Cultures were incubated in a humidified incubator at 37° C., and CCM was changed daily. Intestinal organoid treatment with LPS and metabolites
(§1) We had 2 series of metabolite-treated organoid experiments, i.e., 1) organoid from conventional C57BL6 mice and 2) Ocln KO and littermate WT control as a gift from Prof. Jerrold Turner (Harvard University). […] Seeding is designated as day 0. On day 3 of culture, the existing media in the wells were completely removed before adding treatments. LPS (1 μg/mL) with or without metabolites, i.e., IPA (0.1 mM) (Li et al., 2021), IAM (200 μM) (Vyhlidalova et al., 2020), MNA (12 ng/ml) (Liu et al., 2015), CARN (20 mM) (Boldyrev et al., 2013) or ASA (1 μM) (Erez et al., 2011) were each added in CCM at known physiological concentrations, incubated for 48 hours, thereafter, organoid was harvested for RNA extraction, and paraformaldehyde fixation for immunostaining.
(§2) Total RNA was extracted from the intestinal organoids using a commercially available kit (RNeasy Microkit; Qiagen, MD, Cat. #74004) following manufacturer's instructions. mRNA samples were converted to cDNA using Bio-Rad's iScript Reverse Transcription Supermix for RT-qPCR (Bio-Rad Laboratories, Hercules, CA, Cat. #1708840). cDNA was then used for RT-qPCR (Mx3000P. Stratagene, La Jolla, CA) to analyze several genes using Maxima SYBR Green qPCR Master Mix (Thermo Fisher Scientific, Waltham, MA) and primers (Integrated DNA Technologies, Coralville, IA). Thermal profile for three-step cycling was 10 min at 95° C. for initial denaturation; then 40 cycles of 15 sec at 95° C. for denaturation, 30 sec at 65° C. for annealing, and 30 sec at 75° C. for extension. Primers used are as follows: β-actin (Actb), forward 5′-[…]-3′ (SEQ ID NO: 5), reverse 5′-[…]-3′ (SEQ ID NO: 6); ZO-1 (Tjp1), forward 5′-[…]-3′ (SEQ ID NO: 7), reverse 5′-[…]-3′ (SEQ ID NO: 8), Ocln, forward 5′-[…]-3′ (SEQ ID NO: 9), reverse 5′-[…]-3′ (SEQ ID NO: 10); Lyz1, forward 5′-ATGGCTACCGTGGTGTCAAG-3′ (SEQ ID NO: 11), reverse 5′-CGGTCTCCACGGTTGTAGTT-3′ (SEQ ID NO: 12); Tff3, forward 5′-TAATGCTGTTGGTGGTCCTG-3′ (SEQ ID NO: 13), reverse 5′-CAGCCACGGTTGTTACACTG-3′ (SEQ ID NO: 14). All samples were normalized to β actin expression. Gene expression levels are depicted as fold change relative to the control group.
(§3) Immunocytochemistry followed earlier work (Pearce et al., 2018). Briefly, organoids were extracted from Matrigel by using cell recovery solution (Corning, Cat. No. 354253), processed then fixed in 4% paraformaldehyde for 15 min and dehydrated with 70% ethanol and kept in 4° C. until embedded in paraffin. On the day of embedding, organoids were gently spun down to a pellet (250 g for 5 min), then the supernatant was removed, the pellet resuspended in agarose and embedded in paraffin. […]

[2] = tested on: Tff3 and Lyz1 (goblet and Paneth cells); test: Organoids: goblet and Paneth cell transcripts (Tff3, Lyz1) and cell numbers; type: cell-based, mouse; settings: enteroids
Method: as §1, §2, §3

Row | SMILES | gene expression of Ocln [1] | TJ expression at the protein and mRNA levels [1] | goblet and Paneth cell transcripts and cell numbers [2]
1 | NC(=O)Cc1c[nH]c2ccccc12 [Indole-3-acetamide, indole-3-acetamide] | increased gene expression of Ocln | increased TJ expression | reduced goblet and Paneth cell transcripts as well as cell numbers
2 | C[n+]1cccc(C(N)=O)c1 [Methylnicotinamide, 1-methynicotinamide] | increased gene expression of Ocln | increased TJ expression | reduced goblet and Paneth cell transcripts as well as cell numbers
